Earlier results on 1 compound are cited in US20220387454A1, “NUTRITIONAL COMPOSITION FOR VISUAL FUNCTION” (OMNIACTIVE HEALTH TECHNOLOGIES LIMITED, priority 2019, published 2022).

This data set relates to patients with dry eye syndrome (DES) refractory to conventional treatment with vitamin D deficiency. As to conditions: intramuscular 200,000 IU, p<0.05.

With `C=C1CC[C@H](O)C/C1=C/C=C1\CCC[C@]2(C)[C@@H]([C@H](C)CCCC(C)C)CC[C@@H]12` [cholecalciferol], for the setting “2, 6, and 10 weeks”, the Eyelid margin hyperemia entry is on record as “showed improvement” and the Severity of symptoms entry was “showed improvement”. Moreover, under “2 and 6 weeks vs pre-treatment”, the “Tear break-up time (TBUT)” value is reported as “showed an improvement” and the Tear secretion test entry is reported as “showed an improvement”. In addition, where the note is “2 weeks vs pre-treatment”, the “Fluorescein staining score (FSS)” value was “decreased”, the “Ocular surface disease index (OSDI)” value is reported as “decreased” and the “Visual analogue pain score (VAS)” value is reported as “decreased”.
